Experimental data from ChEMBL document CHEMBL3045516, “Field study of the relative susceptibility of eleven potato (Solanum tuberosum L.) varieties and the efficacy of two fungicides against Rhizoctonia solani attack” (2010).

Key:
Assay type in all cases: functional
Rhizoctonia solani [1] = assay: Fungicidal activity against Rhizoctonia solani assessed as level-4 black scurf infected potato Nicola progeny tubers using 25% active ingredient containing compound treated potato seeds under field trial conditions (reference value: 59.7%)
Rhizoctonia solani [2] = assay: Fungicidal activity against Rhizoctonia solani assessed as level-2 black scurf infected potato Nicola progeny tubers using 25% active ingredient containing compound treated potato seeds and in-furrow compound application under field trial conditions (reference value: 17.9%)
Rhizoctonia solani [3] = assay: Fungicidal activity against Rhizoctonia solani assessed as level-4 black scurf infected potato Nicola progeny tubers using 25% active ingredient containing compound treated potato seeds and in-furrow compound application under field trial conditions (reference value: 59.7%)
Rhizoctonia solani [4] = assay: Fungicidal activity against Rhizoctonia solani assessed as level-2 black scurf infected potato Nicola progeny tubers using 25% active ingredient containing compound treated potato seeds under field trial conditions (reference value: 17.9%)
Rhizoctonia solani [5] = assay: Fungicidal activity against Rhizoctonia solani assessed as level-3 black scurf infected potato Nicola progeny tubers using 25% active ingredient containing compound treated potato seeds and in-furrow compound application under field trial conditions (reference value: 22.4%)
Rhizoctonia solani [6] = assay: Fungicidal activity against Rhizoctonia solani assessed as level-3 black scurf infected potato Nicola progeny tubers using in-furrow application of 25% active ingredient containing compound under field trial conditions (reference value: 22.4%)
Rhizoctonia solani [7] = assay: Fungicidal activity against Rhizoctonia solani assessed as level-1 black scurf infected potato Nicola progeny tubers using 25% active ingredient containing compound treated potato seeds and in-furrow compound application under field trial conditions (reference value: 0.0%)
Rhizoctonia solani [8] = assay: Fungicidal activity against Rhizoctonia solani assessed as level-1 black scurf infected potato Nicola progeny tubers using 25% active ingredient containing compound treated potato seeds under field trial conditions (reference value: 0.0%)
Rhizoctonia solani [9] = assay: Fungicidal activity against Rhizoctonia solani assessed as level-3 black scurf infected potato Nicola progeny tubers using 25% active ingredient containing compound treated potato seeds under field trial conditions (reference value: 22.4%)
Rhizoctonia solani [10] = assay: Fungicidal activity against Rhizoctonia solani assessed as level-2 black scurf infected potato Nicola progeny tubers using in-furrow application of 25% active ingredient containing compound under field trial conditions (reference value: 17.9%)
Rhizoctonia solani [11] = assay: Fungicidal activity against Rhizoctonia solani assessed as level-1 black scurf infected potato Nicola progeny tubers using in-furrow application of 25% active ingredient containing compound under field trial conditions (reference value: 0.0%)
Rhizoctonia solani [12] = assay: Fungicidal activity against Rhizoctonia solani assessed as level-4 black scurf infected potato Nicola progeny tubers using in-furrow application of 25% active ingredient containing compound under field trial conditions (reference value: 59.7%)

| SMILES | Activity (Rhizoctonia solani [1]) [%] | Activity (Rhizoctonia solani [2]) [%] | Activity (Rhizoctonia solani [3]) [%] | Activity (Rhizoctonia solani [4]) [%] | Activity (Rhizoctonia solani [5]) [%] | Activity (Rhizoctonia solani [6]) [%] | Activity (Rhizoctonia solani [7]) [%] | Activity (Rhizoctonia solani [8]) [%] | Activity (Rhizoctonia solani [9]) [%] | Activity (Rhizoctonia solani [10]) [%] | Activity (Rhizoctonia solani [11]) [%] | Activity (Rhizoctonia solani [12]) [%] |
| --- | --- | --- | --- | --- | --- | --- | --- | --- | --- | --- | --- | --- |
| CO/C=C(\C(=O)OC)c1ccccc1Oc1cc(Oc2ccccc2C#N)ncn1 [Azoxystrobin] | 10 | 83.3 | 0.01 | 90 | 0.01 | 69 | 16.7 | 0.01 | 0.01 | 31 | 0.01 | 0.01 |
| O=C(Nc1ccccc1)N(Cc1ccc(Cl)cc1)C1CCCC1 [PENCYCURON] | 1.4 |  |  | 70.8 |  |  |  | 8.1 | 19.7 |  |  |  |
